Ends that are not written are not given here.
Columns and labels:
[1] = Reversed-phase HPLC retention time as measure of peptide hydrophobicity; assay type: physicochemical; details: retention time by reverse-phase HPLC, reflects hydrophobicity difference between analogues
Text: The physicochemical parameters crucial for the antimicrobial activity of AMPs have been identified, encompassing net charge, helicity, hydrophobicity, and amphipathicity. The hydropathicity, mean relative hydrophobic moment, and charge of peptides were predicted using the HeliQuest (https://heliquest.ipmc.cnrs.fr/ (accessed on 12 March 2024)). Lysine is a hydrophilic amino acid, and its substitution leads to a decrease in the hydrophobicity of the SAAP-148 analogue. The anticipated results are consistent, with the degree of reduction in […] varying depending on the position at which lysine is substituted (Table 2). The amphipathicity of the peptides, as denoted by the μH (mean relative hydrophobic moment), is elaborated on in Table 2. The hydrophobic moment of SAAP-148 analogues was decreased except for SAAP-10, which is on account of the substitution occurring on the18th residue. (Figure 1) The 18th residue of SAAP-148 is glutamine, a polar amino acid residue, located at the junction of the hydrophobic and hydrophilic surfaces of the SAAP-148 α-helix. […] The retention time data determined by reversed-phase high-performance liquid chromatography (RP-HPLC) reflects the hydrophobicity difference between peptide analogues. It is well documented that the formation of a hydrophobic-binding domain due to peptide secondary structure can affect peptide interactions with reversed-phase matrices. This effect was observed particularly for amphipathic α-helical peptides. Given this preferred binding domain, amphipathic α-helical peptides are considerably more retentive than non-amphipathic peptides with the same amino acid composition.
This phenomenon was particularly evident in the case of amphipathic α-helical peptides. […] This discrepancy may be attributed to the lack of a well-defined α-helical structure in SAAP-148 and its analogues (Figure S1).

[2] = system: Escherichia coli (1.8732); assay type: cell-based
Text: (§1) The LL-37, SAAP-148 and its analogues peptides were synthesized according to the standard Fmoc procedure. The Fmoc-protected resin and monomers are first treated with a basic solvent (piperidine) to remove the amino protecting groups. The carboxyl group of the next amino acid is activated by an activator. The activated monomer reacts with the free amino group to form a peptide bond. These two steps are repeated in a cycle until the synthesis is complete. After synthesis, the peptide is eluted from the column and purified by reverse-phase semipreparative high-performance liquid chromatography as detailed in Table 1. The peptides were dissolved in PBS to create a 1000 μmol/L stock solution for subsequent use. The purity of the synthetic peptide exceeded 95%. Blood samples from healthy donors were obtained from the Fifth Medical Center of Chinese PLA General Hospital (Beijing, China). Human normal lung epithelial cells (BEAS-2B) and mouse mononuclear macrophages cells (RAW 264.7) were sourced from Beyotime Biotechnology (Beijing, China), along with the Enhanced Cell Counting Kit-8 (CCK-8) and nitric oxide detection kit. RPMI-1640 and DMEM were procured from Merck (Darmstadt, Germany), while FBS was obtained from ExCell Bio (Shanghai, China). LPS-B5 (from E. coli 055:B5) was procured from Invivogen (Toulouse, France). Five bacterial strains, including Escherichia coli (1.8732), Pseudomonas aeruginosa (1.2421), Klebsiella pneumonia (1.1736) as Gram-negative bacteria, and Staphylococcus aureus (1.8721) and Staphylococcus epidermidis (1.4260) as Gram-positive bacteria, were procured from the China General Microbiological Culture Collection Centre (CGMCC) (Beijing, China).
(§2) The antibacterial activities of the peptides against […] were evaluated using a modified version of the Clinical Laboratory and Standards Institute (CLSI) broth microdilution method, as previously described. Briefly, the bacteria were cultured in liquid LB medium (comprising 10 g/L tryptone, 5 g/L yeast extract, and 10 g/L NaCl) at 37 °C until reaching mid-log phase. Subsequently, the bacterial concentration was adjusted to 1 × 10^6 colony-forming units (CFU)/mL. The peptides were then diluted serially with phosphate-buffered saline (PBS), followed by the addition of 50 μL of the diluted peptides to 50 μL of the bacterial suspension in a 96-well plate (Corning Inc., Lowell, MA, USA). After incubating at 37 °C for 18 to 20 h, the absorbance of each well was measured using a multi-well microplate reader (SpectraMax M5; Molecular Devices, Sunnyvale, CA, USA) at 600 nm.

[3] = system: Pseudomonas aeruginosa (1.2421); assay type: cell-based
Text: as §1, §2

[4] = system: Staphylococcus aureus (1.8721); assay type: cell-based
Text: as §1, §2

[5] = system: Staphylococcus epidermidis (1.4260); assay type: cell-based
Text: as §1, §2

[6] = system: Klebsiella pneumonia (1.1736); assay type: cell-based, Klebsiella pneumoniae
Text: as §1, §2

[7] = system: Gram-negative bacteria (E. coli, P. aeruginosa, K. pneumoniae); test: Geometric mean of MICs against Gram-negative bacteria; assay type: cell-based; set-up: unit not given here
Description: as §2

[8] = system: Gram-positive bacteria (S. aureus, S. epidermidis); test: Geometric mean of MICs against Gram-positive bacteria; assay type: cell-based; set-up: unit not given here
Description: as §2

five bacterial strains = test: MICs against all five bacterial strains (geometric mean, range); assay type: cell-based; set-up: unit not given here; details: geometric mean of MICs against all five bacterial strains
Description: as §2

human erythrocytes = test: Haemolytic activity; assay type: cell-based
Description: The haemolytic activity of the peptides was evaluated using a standard procedure with minor adjustments. Fresh human erythrocytes were washed thrice and subsequently resuspended at 1.25% haematocrit in PBS. Forty microlitres PBS-diluted peptide solution was added to a 96-well plate (Corning Inc., Lowell, MA, USA), and 160 μL of erythrocytes was added. After incubation at 37 °C for 30 min, the samples were centrifuged, and the absorbance of the supernatant was measured at 450 nm using a multi-well microplate reader (SpectraMax M5; Molecular Devices, Sunnyvale, CA, USA) and compared with the 100% haemolysis caused by 0.1% Triton X-100. The percentage of haemolysis was calculated according to the equation: Haemolysis%=Asample−Ablank/Atriton−Ablank×100

[9] = system: human erythrocytes versus five bacterial strains; test: Therapeutic index (MHC/GM of MIC); details: for Fold (TI of analogue compared with SAAP-148): TI change relative to SAAP-148; for TI (MHC/MIC): ratio of MHC to geometric mean of MIC (five strains)
Description: The geometric mean of minimum inhibitory concentration (MIC) values (GM) from the five strains was calculated to provide a comprehensive assessment of antimicrobial activity, as presented in Table 4.
The therapeutic index (TI) is a widely utilized parameter for indicating the specificity of antimicrobial agents, which is determined by the ratio of MHC (hemolytic activity) and MIC (antimicrobial activity). Consequently, larger TI values signify greater antimicrobial specificity. The TI can be enhanced through one of three mechanisms: increasing antimicrobial activity, reducing hemolytic activity while maintaining antimicrobial activity, or a combination of both augmenting antimicrobial activity and diminishing hemolytic activity.

[10] = CD spectra, secondary structure by BeStSel; assay type: physicochemical; details: 30 μM SDS as printed, 100 μM peptide, 25 °C
Description: CD spectra (Figure S1) were acquired using a JASCO J-1500 spectropolarimeter (JASCO Inc., Easton, MD, USA) in 0.1 cm pathlength cells under nitrogen at 25 °C. The spectra were recorded in the range of 190 to 250 nm at a peptide concentration of 100 μM in SDS. Secondary structure was determined using the BeStSel server. Hydropathicity, mean relative hydrophobic moment, and charge of peptides were predicted using the HeliQuest (https://heliquest.ipmc.cnrs.fr/ (accessed on 12 March 2024)). The 3D structure of SAAP-148 and its analogues (Figure S2) was predicted using PEP-FOLD4 servers (https://bioserv.rpbs.univ-paris-diderot.fr/services/PEP-FOLD4/ (accessed on 19 June 2024)).

Row | Substance | Rt [1] [min] | MIC E. coli [2] [µM] | MIC P. aeruginosa [3] [µM] | MIC S. aureus [4] [µM] | MIC S. epidermidis [5] [µM] | MIC K. pneumoniae [6] [µM] | GM to G− [7] | GM to G+ [8] | MIC (GM) (five bacterial strains) | haemolytic activity compared with SAAP-148 (human erythrocytes) | Fold (TI of analogue compared with SAAP-148) [9] | TI (MHC/MIC) [9] | Others [10] [%] | Turn [10] [%] | α-Helix [10] [%] | β-Antiparallel [10] [%] | β-Parallel [10] [%] | fold increase of MHC over that of SAAP-148 (human erythrocytes) [fold]
1 | LKRVWKRVFKLLKRYWRKLKKPVR-NH2 [SAAP-10] | 13.69 | 6.25 | 6.25 | 50.00 | 3.13 | 25.00 | 9.92 | 12.51 | 10.88 | comparable hemolytic activity to SAAP-148 | 0.64 | 0.07 | 0 | 0 | 100 | 0 | 0 | –
2 | KKRVWKRVFKLLKRYWRQLKKPVR-NH2 [SAAP-1] | 11.419 | 3.13 | 3.13 | 50.00 | 3.13 | 6.25 | 3.94 | 12.51 | 6.25 | comparable hemolytic activity to SAAP-148 | 1.1 | 0.12 | 0 | 0 | 93.5 | 6.5 | 0 | –
3 | LKRVWKRVFKLLKRYWRQLKKKVR-NH2 [SAAP-12] | 16.604 | 12.50 | 12.50 | 25.00 | 6.25 | 100.00 | 25 | 12.5 | 18.95 | comparable hemolytic activity to SAAP-148 | 0.36 | 0.04 | 0 | 0 | 100 | 0 | 0 | –
4 | LKRVWKRKFKLLKRYWRQLKKPVR-NH2 [SAAP-4] | 9.96 | 1.56 | 3.13 | 100.00 | 3.13 | 100.00 | 7.87 | 17.69 | 10.88 | – | 83.55 | 9.19 | 3.6 | 0 | 50.9 | 45.5 | 0 | 133.33

Source: PMC11546786, “Designing Analogs of SAAP-148 with Enhanced Antimicrobial and Anti-LPS Activities” (International Journal of Molecular Sciences, 2024)
